AC50 data for 75 compounds are collected here from PubChem BioAssay AID977622 (Broad Institute, 2014).

Inconclusive results are not listed. Activity calls are given as the source filed them.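 Rule for the calls: active = Green signal of the normal strain falls at least twice as much as red signal of the resistant mutant, with overall culture growth loss under a set limit; inconclusive = no clear call, values can overlap the other calls; inactive = the rest.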

The subject of the assay is E. coli WT ribosome GFP fluorescence, mixed culture, 24 h. Kind of assay: wild-type E. coli growth inhibition versus h38 humanized strain – h38 mutant RFP, wild-type GFP, cherry-pick, dose response (AID 977622).
[1] abbreviates: E. coli mixed culture, 24 h, measured here: total growth OD600.

One may read the AC50 as the midpoint of the concentration-response curve, whichever way the signal moves. Compound `O=S1(=O)N[C@H](Cc2ccccc2)COc2cc(N3CCSCC3)ccc21` returned an AC50 under setting [1] greater than 100 µM.
For the compound `Cc1ccsc1C(=O)N1CCCC(C(=O)c2cc(F)ccc2F)C1` (stereo unspecified), the AC50 was > 100 µM (inactive). The compound further gave a half-maximal activity concentration (AC50) under setting [1] greater than 100 µM.
For `O=C(NCc1cccnc1)C1CCN(S(=O)(=O)c2cc([N+](=O)[O-])ccc2Cl)CC1`, the AC50 is > 100 µM (inactive).
As to `COc1ccc(C(=O)N(c2ccccc2)c2nccc3ccccc23)cc1OC`, the AC50 is > 100 µM (inactive).
For the compound `COc1cc(C(=O)NCCc2c[nH]c3ccccc23)ccc1OCc1c(C)noc1C`, the AC50 is > 100 µM (inactive). Further, the concentration at half-maximal activity (AC50) under setting [1] was greater than 100 µM.
Compound `Cn1cc(CN2CCCC(C(=O)Nc3cccc(-c4cc5ccccc5[nH]4)c3)C2)cn1` (stereo unspecified) registered an AC50 under setting [1] greater than 100 µM.
As for `O=C(Cc1cccc(NC(=O)C2CCCN(C(=O)CCc3ccccc3)C2)c1)Nc1cccc(C(=O)N2CCCC2)c1` (stereo unspecified), the AC50 is > 100 µM (inactive).
For `O=C(O)c1cc(-c2cccs2)nn1-c1cccc(Cl)c1`, the AC50 was > 100 µM (inactive).
On to `CCCC[n+]1ccn(-c2nc3ccccc3nc2[N-]S(=O)(=O)c2cccs2)c1`, for which the AC50 was > 100 µM (inactive). Also, the half-maximal activity concentration (AC50) under setting [1] is greater than 100 µM.
In the same order, the values of `CC(Nc1ncnc2ccccc12)c1ccccc1` (stereo unspecified) are > 100 µM (inactive) and greater than 100 µM.
With `Cc1cccc(CSCC(=O)N2CCN(S(=O)(=O)c3ccccc3C#N)CC2)c1`, the AC50 is > 100 µM (inactive).
On to `CCOC(=O)C(CC)Sc1cc(C)nc2ccc(OC)cc12` (stereo unspecified), for which the AC50 under setting [1] was greater than 100 µM.
Same read-out and setting: the value for `NS(=O)(=O)c1cc(C(=O)OCC(=O)Nc2ccccc2[N+](=O)[O-])ccc1Cl` was greater than 100 µM.
Take `O=C(C[C@H]1CC[C@@H]2[C@H](COC[C@@H](O)CN2C(=O)Nc2cc(Cl)cc(Cl)c2)O1)N1CCOCC1`: the AC50 was > 100 µM (inactive).
For `Cc1cc(C(=O)OCC(=O)Nc2cccc(S(N)(=O)=O)c2)c2ccccc2n1`, the AC50 was > 100 µM (inactive). Under setting [1], this compound yielded a concentration at half-maximal activity (AC50) greater than 100 µM.
As to `CNC(=O)c1ccsc1NC(=O)c1ccc2c(c1)CCCC2`, the AC50 is > 100 µM (inactive). Under setting [1], this compound gave an AC50 greater than 100 µM.
Turning to `COc1cccc(-n2nnnc2SCC(=O)NCc2ccc3c(c2)OCO3)c1`, the AC50 is > 100 µM (inactive).
The same measure, in the same setting: then `Cc1ccc(-c2cc(-c3ccc(C)cc3)[n+](-c3ccc(C(=O)[O-])cc3)c(-c3ccc(C)cc3)c2)cc1`, with > 100 µM (inactive).
On the same count and under the same terms, then `Nc1ccccc1C#CC(=O)c1ccccc1`, with > 100 µM (inactive); and `O=C1N[C@@H](Cc2ccccc2)COC(=O)[C@H](Cc2ccc(F)cc2)C/C=C\C[C@H]1CC(=O)N(CCO)Cc1ccccc1`, with > 100 µM (inactive).
On to `O=C(Cc1cccc(NC(=O)C2CCN(C(=O)C3CCCCC3)CC2)c1)Nc1cccc(C(=O)N2CCCC2)c1`, for which the AC50 was > 100 µM (inactive). The same compound yielded a concentration at half-maximal activity (AC50) under setting [1] greater than 100 µM.
In turn, `OC(COc1ccc(Cl)cc1)CN1CCN(c2ccccn2)CC1` (stereo unspecified) showed an AC50 under setting [1] greater than 100 µM.
The same measure, in the same setting: the value for `Nc1[nH]c(C(=O)c2ccccc2)c(-c2ccc3c(c2)OCO3)c1C(=O)NCCc1c[nH]c2ccccc12` was greater than 100 µM.
As for `Cc1nnc2sc(SCC(=O)Nc3ccc(Br)cc3)nn2c1=O`, the AC50 is > 100 µM (inactive). Under setting [1], this compound gave an AC50 greater than 100 µM.
Turning to `CCc1ccc(CN2CCCC(CNS(=O)(=O)c3ccc(OC)cc3)C2)cc1` (stereo unspecified), under setting [1], the AC50 is greater than 100 µM.
Turning to `CC(=O)OC(COc1cccc(C)c1)Cn1cnc2ccccc21` (stereo unspecified), the AC50 is > 100 µM (inactive). Under setting [1], the AC50 was 50.7 µM.
For the compound `CC(=O)N1CCOc2ccc(S(=O)(=O)N(C)c3ccc(C)cc3)cc21`, the AC50 was > 100 µM (inactive).
Regarding `O=S(=O)(NCc1ccc2c(c1)OCO2)c1ccc2c(c1)oc1ccccc12`, the AC50 was > 100 µM (inactive). Further, under setting [1], the concentration at half-maximal activity (AC50) was found to be 40.8 µM.
As to `COC(=O)c1c(NC(=O)c2ccccc2C(=O)O)sc2c1CCC2`, the AC50 is > 100 µM (inactive).
For the compound `CC(=O)Nc1ccc2nc3ccccc3nc2c1`, the AC50 is > 100 µM (inactive). Besides, the AC50 under setting [1] was greater than 100 µM.
Turning to `Cc1ccc(C(=O)c2coc3cc([N+](=O)[O-])c(O)c([N+](=O)[O-])c23)cc1`, the AC50 is > 100 µM (inactive). Besides, the AC50 under setting [1] came to 21.5 µM.
`CCOC(=O)c1sc(Nc2cccc(Cl)c2)nc1C` yielded an AC50 under setting [1] greater than 100 µM.
In the case of `COc1ccc(NC(=O)Nc2cccc3c2O[C@H](CN(C)S(=O)(=O)c2ccc(Cl)cc2)[C@H](C)CN([C@H](C)CO)C3=O)cc1`, the AC50 was > 100 µM (inactive). Also, the AC50 under setting [1] worked out at 44.2 µM.
In the same order, the values of `O=C(Cc1ccc(Br)cc1)Nc1cccc(-c2cn3c(n2)SCC3)c1` are > 100 µM (inactive) and greater than 100 µM.
In the same order, the values of `CN(C)C(=O)C1C2NC(=S)N(c3cccc(Cl)c3)C1(C)Oc1ccc(Cl)cc12` (stereo unspecified) are > 100 µM (inactive) and greater than 100 µM.
As to `O=C(CCCOc1ccc(Cl)cc1Cl)Nc1ccccc1C(=O)O`, the AC50 is > 100 µM (inactive).
As for `Cn1cnc(CCNC(=O)C[C@H]2CC[C@@H]3[C@H](COC[C@H](O)CN3C(=O)Nc3ccc(Cl)cc3)O2)c1`, the AC50 is > 100 µM (inactive).
Take `CCOc1ccc(OCCn2c(=S)[nH]c3c(N)ncnc32)cc1`: the AC50 was > 100 µM (inactive). Under setting [1], the AC50 worked out at 39 µM.
Compound `CCC(C)c1ccccc1NC(=O)c1cccc(-n2cnnn2)c1` (stereo unspecified) yielded an AC50 under setting [1] greater than 100 µM.
In turn, `NC(=O)c1ccsc1NC(=O)COC(=O)Cc1ccc(F)cc1` returned an AC50 under setting [1] greater than 100 µM.
On to `Cc1cc(C(=O)Nc2cccc3c2O[C@H](CN(C)S(=O)(=O)c2ccc(Cl)cc2)[C@H](C)CN([C@H](C)CO)C3=O)n(C)n1`, for which the AC50 is > 100 µM (inactive). In addition, under setting [1], the AC50 was 27.8 µM.
`CCCN(CC(=O)Nc1ccccc1C)C(=O)c1cccc(S(=O)(=O)N2CCc3ccccc3C2)c1`: the AC50 is > 100 µM (inactive).
Same read-out and setting: then `Cc1nn(-c2ccc(N3CCCCC3)nn2)c(C)c1CCC(=O)Nc1ccc(F)cc1`, with > 100 µM (inactive).
`CC(=O)OC1N=C(c2ccccc2Cl)c2cc(Br)ccc2NC1=O` (stereo unspecified) yielded an AC50 under setting [1] greater than 100 µM.
Turning to `O=C(C[n+]1cc(-c2ccc(Cl)c(Cl)c2)n2c1CCC2)OCc1ccccc1`, the AC50 is > 100 µM (inactive).
In the case of `CC[N+](CC)(CC#Cc1ccccc1)CC#Cc1ccccc1`, the AC50 is > 100 µM (inactive). Further, the AC50 under setting [1] was greater than 100 µM.
In the same order, the values of `CC(C)(C)C1CCC(OCC(O)CN2CCN(c3ccccn3)CC2)CC1` (stereo unspecified) are > 100 µM (inactive) and 44.7 µM.
`COc1ccc(C#Cc2ccc([C@H]3[C@@H](CO)N4CCCCN(C(=O)Nc5cccc(F)c5)C[C@H]34)cc2)cc1` came in with an AC50 under setting [1] greater than 100 µM.
As to `CCOC(=O)c1c(CS(=O)(=O)c2ccccc2)n(C)c2cc(Br)c(O)cc12`, the AC50 was > 100 µM (inactive).
Same read-out and setting: the value for `CCCc1nc2cc(C)c(Br)c(C)n2c1CC1CCCCC1` was > 100 µM (inactive).
Under setting [1], `C=CCNc1ccc2c(c1)OC[C@H](CC(C)C)NS2(=O)=O` came in with an AC50 greater than 100 µM.
`O=C(Nc1cccc(O)c1)c1cc(-c2ccccc2Cl)on1`: the AC50 was > 100 µM (inactive).
With `CC(C)Oc1ccc(C(CC(=O)O)NC(=O)C(Sc2ccccc2)c2ccccc2)cc1` (stereo unspecified), the AC50 is > 100 µM (inactive). Under setting [1], the AC50 was greater than 100 µM.
In the case of `CC(CCC(=O)O)C1CC[C@@]2(C)C3C(=O)CC4C(C)(C)C(O)CC[C@]4(C)C3C(=O)C[C@]12C` (stereo partly specified), the AC50 is > 100 µM (inactive). Under setting [1], this compound registered an AC50 greater than 100 µM.
Regarding `CCCCCCCNC(=O)c1ccc(N2CCC3(CC2)OCCO3)c([N+](=O)[O-])c1`, under setting [1], the AC50 was determined as 40.4 µM.
Take `S=c1nc(-c2cc(Cl)cc(Cl)c2)[nH][nH]1`: the AC50 was > 100 µM (inactive).
For `COc1ccc(CNS(=O)(=O)c2ccc3c(c2)NC(=O)C(C)S3)cc1` (stereo unspecified), the AC50 is > 100 µM (inactive).
Still for that read-out and setting: then `CCCn1c(=O)c2ccccc2n2c(SCCOc3ccc(OC)cc3)nnc12`, with > 100 µM (inactive).
For `O=C(c1cc2cc(F)ccc2[nH]1)N1CCN(Cc2ccc3c(c2)OCO3)CC1`, the AC50 was > 100 µM (inactive). The compound also returned an AC50 under setting [1] of 20.8 µM.
Consider `COc1ccc(C(=O)NCCc2ccccn2)cc1S(=O)(=O)Nc1ccc(Br)cc1`, for which the AC50 was > 100 µM (inactive).
`CCCN1C(=O)C(O)(c2c(C)[nH]c3ccccc23)c2ccccc21` (stereo unspecified): the AC50 under setting [1] is greater than 100 µM.
On the same count and under the same terms, then `CSc1ccc(CN(C)C(=O)C(c2ccccc2)c2ccccc2)cc1`, with greater than 100 µM.
Regarding `Cc1ccc(S(=O)(=O)NCc2c(-c3ccccc3)noc2C)cc1`, the AC50 is > 100 µM (inactive).
Turning to `COC(=O)c1c(C)oc(C)c1S(=O)(=O)NC(c1ccccc1)c1ccccc1`, the AC50 was > 100 µM (inactive). Under setting [1], this compound had an AC50 of 35.7 µM.
In the case of `Cc1ccccc1S(=O)(=O)NC(=O)C1(C)CCN1C(=O)C1(c2ccc(Cl)cc2)CC1` (stereo unspecified), the AC50 was > 100 µM (inactive).
For `O=C(CCc1nc2ccccc2s1)OCC(=O)c1ccc[nH]1`, the AC50 is > 100 µM (inactive).
Consider `Cc1n[nH]c(C)c1S(=O)(=O)N1CCCC(C(=O)Nc2ccc(Br)cc2)C1` (stereo unspecified), for which the AC50 under setting [1] is greater than 100 µM.
On to `Nc1ccc(C(=O)OCCc2ccccc2)cc1`, for which the AC50 is > 100 µM (inactive).
For the compound `Cc1ccc(S(=O)(=O)N2CC[C@H]3[C@H](CO)Nc4ccc(Br)cc4[C@H]32)cc1`, the AC50 was > 100 µM (inactive). Further, the AC50 under setting [1] is 29.1 µM.
Under setting [1], `Cc1ccc2nc(-c3ccc(Cl)cc3)c(Cc3ccccc3C(F)(F)F)n2c1` registered an AC50 greater than 100 µM.
For the compound `NS(=O)(=O)c1cccc(NC(=O)COc2ncnc3c2cnn3-c2ccccc2)c1`, the AC50 is > 100 µM (inactive).
The same measure, in the same setting: the value for `COc1ccccc1CN1Cc2ccccc2Oc2ccccc2S1(=O)=O` was > 100 µM (inactive).
For the compound `CCN(c1ccccc1)S(=O)(=O)c1ccc(Cl)c(NC(=O)CSc2n[nH]c(N)n2)c1`, the AC50 was > 100 µM (inactive). Under setting [1], this compound showed an AC50 greater than 100 µM.
In the same order, the values of `CN(C)C(CNS(=O)(=O)c1cc([N+](=O)[O-])ccc1Cl)c1ccco1` (stereo unspecified) are > 100 µM (inactive) and greater than 100 µM.
On to `COc1ccccc1C(=O)Nc1ccc2c(c1)nc1n2CCN(C2CCCCC2)C1`, for which the AC50 was > 100 µM (inactive).
